The subject of one experiment is ADtg mice. The experiment in a line: Pre- and post-synaptic density in brains of AD+ mice after immune modulation. In kind it is in vivo, mouse. The note with it: 13m old AD+ mice (FIG. 3E). As for the experimental part:
ADtg mice (10 months old) received subcutaneous injections of GA [also known as Cop-1 and Copaxone®; 100 μg in phosphate-buffered saline (PBS)] or PBS alone (control group) twice a week for 1 week and then once a week for 8 weeks. For evaluation of innate immune infiltration to the brain by flow cytometry, 10-month-old ADtg mice received subcutaneous injections of GA ([…]) or PBS alone twice a week for 1 week and then once a week for 3 weeks. At the end of the study, all mice were anaesthetized and then perfused with ice-cold PBS with 0.5 mM EDTA, after which their organs were collected and analyzed or fixed in 2.5% paraformaldehyde (Sigma-Aldrich), and cryoprotected with 30% sucrose for further histological analysis. […]
To define the synaptic area in the hippocampus of ADtg and non-transgenic (wild-type) mice, three independent coronal brain sections at bregma −2.50 , −2.65, and −2.80 mm (Liang et al., 2011) per animal (n=6 mice per group) were stained with the presynaptic marker VGluT1 (encoded by Slc17a7) (Chemicon, guinea pig, 1:6000). […] Single optical section images were analyzed using the NIH ImageJ macro and batch process to quantify the synaptic area (15 optical sections/field, 15 fields/brain section, and 675 total images/brain). The average synaptic area or percentage of the area per image was calculated for each condition. […]

A further experiment relates to OPN. The experiment in a line: Western blot of OPN and its MMP-cleaved fragments in macrophages. The note with it: Western blot band density (FIG. 16I-16J). In kind it is cell-based, mouse. As for the experimental part: MΦ^BM were lifted from each cell by 2 mM EDTA-PBS, collected in an Eppendorf tube, and centrifuged. Cell pellets were lysed in RIPA buffer (Thermo Scientific) and supplemented with a cocktail of protease inhibitors (Thermo Scientific). Protein concentration was determined using a BCA Protein Assay Kit (Thermo Scientific). Aliquots of protein samples were electrophoretically separated using 4-12% Bis-Tris gels (Invitrogen), then transferred to nitrocellulose membranes, blocked in Tris-buffered saline (TBS) containing 5% (w/v) non-fat dry milk, and hybridized with appropriate primary antibodies, including rabbit polyclonal OPN (Abcam), goat polyclonal OPN (R&D systems), and Actin (Abcam). Membranes were then incubated with the appropriate HRP-conjugated secondary antibody prior to development with chemiluminescent substrates. Densitometric analysis of blots was conducted using ImageJ software, and each experimental sample was normalized to Actin.
Next, MMP-9 expression and OPN proteolytic fragments were analyzed. […] OPN is a known substrate for MMPs (including MMP-9). A detailed analysis of OPN expression in macrophages was performed using a polyclonal antibody recognizing full-length OPN and its MMP-cleaved fragments, including the 32 kD form. […] Remarkably, the MMP-generated 32kD C-terminus-containing peptide was elevated 12-fold after GA treatment. […]
(A western blot detects proteins with antibodies after separation by electrophoresis.)

Turning to glatiramer acetate [GA], in the experiment on ADtg mice, the “synaptic rescue (pre- and post-synaptic areas)” value is reported as “remarkable synaptic rescue”. Moreover, the “elevation of MMP-generated 32kD C-terminus-containing OPN peptide” value in the experiment on OPN is 12 fold.

Values taken from patent publication US11779600B2, “Methods of treating or preventing alzheimer's disease and associated conditions” (CEDARS-SINAI MEDICAL CENTER, priority 2016, dated 2023).
